# Assay results published in patent US9725441B2, “Histone demethylase inhibitors” (CELGENE QUANTICEL RESEARCH, INC., priority 2012, dated 2017).
# Molecular target: JMJD2C (Homo sapiens (Human), UniProt Q9H3R0)
# Assay: JMJD2C in vitro enzyme inhibition assay (TR-FRET)
# Assay type: biochemical
# Conditions: 0.3 nM JMJD2C, 300 nM H3K9me3-biotin peptide, 2 μM alpha-ketoglutaric acid
# Excerpt: This assay determines the ability of a test compound to inhibit Jarid1A, Jarid1B, and JMJD2C demethylase activity. Baculovirus expressed Jarid1A (GenBank Accession #NM_001042603, AA1-1090) was purchased from BPS Bioscience (Cat#50110). Baculovirus expressed Jarid1B (GenBank Accession #NM_006618, AA 2-751) was purchased from BPS Bioscience (Cat #50121) or custom made by MolecularThroughput. Baculovirus-expressed JMJD2C (GenBank Accession #BC143571, AA 2-372) was purchased from BPS Bioscience (Cat#50105).
# The ability of test compounds to inhibit the activity of JMJD2C was determined in 384-well plate format under the following reaction conditions: 0.3 nM JMJD2C, 300 nM H3K9me3-biotin labeled peptide (Anaspec cat #64360), 2 μM alpha-ketoglutaric acid in assay buffer of 50 mM HEPES, pH7.3, 0.005% Brij35, 0.5 mM TCEP, 0.2 mg/ml BSA, 50 μM sodium L-ascorbate, and 2 μM ammonium iron(II) sulfate. Reaction product was determined quantitatively by TR-FRET after the addition of detection reagent Phycolink Streptavidin-allophycocyanin (Prozyme) and Europium-anti-di-methylated histone H3 lysine 9 (H3K9me2) antibody (PerkinElmer) in the presence of 5 mM EDTA in LANCE detection buffer (PerkinElmer) at a final concentration of 50 nM and 1 nM, respectively.
# The reaction mixture was incubated at room temperature for 30 min, and terminated by the addition of 6 μl of 5 mM EDTA in LANCE detection buffer containing 100 nM Phycolink Streptavidin-allophycocyanin and 2 nM Europium-anti-H3K9me2 antibody. Plates were read by EnVisionMultilabel Reader in TR-FRET mode (excitation at 320 nm, emission at 615 nm and 665 nm) after 1 hr incubation at rt. A ratio was calculated (665/615) for each well and fitted to determine inhibition constant (IC50).
# Sequence of JMJD2C (Q9H3R0 2-372): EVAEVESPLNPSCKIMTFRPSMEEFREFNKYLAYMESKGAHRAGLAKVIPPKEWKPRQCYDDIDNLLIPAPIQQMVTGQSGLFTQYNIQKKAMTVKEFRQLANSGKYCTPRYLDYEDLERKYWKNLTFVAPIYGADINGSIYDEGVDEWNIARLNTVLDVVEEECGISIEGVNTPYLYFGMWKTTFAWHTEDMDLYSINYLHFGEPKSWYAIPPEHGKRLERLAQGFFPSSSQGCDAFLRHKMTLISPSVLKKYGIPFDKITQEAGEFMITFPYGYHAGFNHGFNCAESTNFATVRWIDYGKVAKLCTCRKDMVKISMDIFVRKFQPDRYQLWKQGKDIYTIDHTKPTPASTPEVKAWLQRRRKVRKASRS
row,Substance,IC50 [nM]
1,"3-{[(6-fluoro-3,4-dihydro-2H-chromen-4-yl)methyl]amino}-pyridine-4-carboxylic acid [Example 65]",≤ 100
2,"3-{[(6-chloro-1-hydroxy-1,2,3,4-tetrahydronaphthalen-1-yl)methyl]amino}pyridine-4-carboxylic acid [Example 68]",100 to 1000
3,"3-{[(6-chloro-1,2,3,4-tetrahydronaphthalen-1-yl)methyl]amino}pyridine-4-carboxylic acid [Example 67]",100 to 1000
